Measurements as given in patent publication US20050227933A1 (priority 2001, published 2005).

What was measured:
[1] = biological target: dcm Methyltransferase (Hhal) (Haemophilus parahaemolyticus, UniProt P05102); assay type: biochemical, Hemophilus hemolyticus; details: at 500 μM
[2] = tested on: Agrobacterium tumefaciens; assay type: cell-based; details: read-out: IC50 cell growth inhibition
Brucella abortus = assay type: cell-based
dam Methylase (E. coli) = dam Methylase (E. coli) (Escherichia coli, UniProt P0AEE8); assay type: biochemical; details: 100 µM
Caulobacter cresentus = test: microbe, parasite or virus in culture; assay type: cell-based; details: read-out: IC50 cell growth inhibition
Bacillus subtilis = test: microbe, parasite or virus in culture; assay type: cell-based; details: read-out: IC50 cell growth inhibition
[3] = tested on: bacterial cells expressing an adenine DNA methyltransferase; assay type: cell-based, Caulobacter
[4] = tested on: Caulobacter crescentus (CB15N); assay type: cell-based; details: 30° C., growth monitored at 630 nm up to 22 hours; read-out: IC50 (μM) Caulobacter crescentus Cell Growth
[5] = tested on: Bacillus subtilis (ATCC #33234); assay type: cell-based; details: 37° C., growth monitored up to 7.5 hours; read-out: IC50 (μM) Bacillus Subtilis Cell Growth
Brucella abortus CcrM = assay type: biochemical
Helicobacter pylori = assay type: cell-based; details: read-out: IC50 cell growth inhibition
[6] = tested on: adenine DNA methyltransferase; assay type: biochemical

dcm Methyltransferase (Hhal), sequence (P05102 whole entry): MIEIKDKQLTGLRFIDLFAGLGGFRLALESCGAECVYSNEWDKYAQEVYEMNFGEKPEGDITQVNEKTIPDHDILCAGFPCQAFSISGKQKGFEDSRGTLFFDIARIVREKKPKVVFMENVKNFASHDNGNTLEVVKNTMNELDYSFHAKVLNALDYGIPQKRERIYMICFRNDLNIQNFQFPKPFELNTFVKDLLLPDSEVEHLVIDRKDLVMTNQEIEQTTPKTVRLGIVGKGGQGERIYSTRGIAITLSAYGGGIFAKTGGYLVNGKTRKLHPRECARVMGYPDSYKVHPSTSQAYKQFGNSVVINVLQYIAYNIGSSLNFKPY
dam Methylase (E. coli), sequence (P0AEE8 whole entry): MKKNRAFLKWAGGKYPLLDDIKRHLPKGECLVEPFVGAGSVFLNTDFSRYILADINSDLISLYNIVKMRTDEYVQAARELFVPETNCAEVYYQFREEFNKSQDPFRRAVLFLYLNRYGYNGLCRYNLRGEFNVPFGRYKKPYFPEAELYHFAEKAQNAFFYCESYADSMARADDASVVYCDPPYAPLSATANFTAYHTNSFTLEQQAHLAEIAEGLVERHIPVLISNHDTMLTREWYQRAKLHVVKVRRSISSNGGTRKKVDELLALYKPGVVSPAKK

6-N-(diphenylborinic ester)-ethyl-9-(2-(4-morpholinyl)-ethyl)-adenine [Compound 3b]
inhibition of dcm Methyltransferase [1]: No inhibition at all | IC50 [2]: 25 µM | effect on cell growth (Brucella abortus): Complete cell death after 12 hours | inhibition of dam Methylase (dam Methylase (E. coli)): Complete inhibition

Clc1ccc([B-]2(c3ccc(Cl)cc3)Oc3cccc4ccc[n+]2c34)cc1 [Compound (2), di-(p-chlorophenyl)borinic acid 8-hydroxyquiniline ester]
IC50 (Caulobacter cresentus): 1.6 µM | IC50 (Bacillus subtilis): 7 µM

c1ccc(B(OCCNc2ncnc3[nH]cnc23)c2ccccc2)cc1
concentration found to inhibit cell growth [3]: < 50 µM

Clc1ccc(OB(c2ccc3c(c2)OCO3)c2ccc3c(c2)OCO3)c2ncccc12 [(13vi), Di-(3,4-methylenedioxyphenyl)borinic acid 5-chloro-8-hydroxyquinoline ester]
IC50 [4]: 7 µM | IC50 [5]: > 100 µM

c1ccc(B(OCc2ccccn2)c2ccccc2)cc1 [(16i), Diphenylborinic acid pyridine-2-methanol]
IC50 [4]: > 100 µM | IC50 [5]: > 100 µM | % reaction Brucella abortus CcrM Activity (Brucella abortus CcrM): 93%

Cc1ccc2cccc(OB(c3ccc(Cl)cc3)c3ccc(Cl)cc3)c2n1 [(12iii), Di-(p-chlorophenyl)borinic acid 8-hydroxyguinaldine ester]
IC50 [4]: 5 µM | IC50 [5]: 24 µM | % reaction Brucella abortus CcrM Activity (Brucella abortus CcrM): 40%

COc1ccc(B(Oc2cccc3ccc(C)nc23)c2ccc(OC)cc2)cc1 [(12vii), Di-(4-methoxyphenyl)borinic acid 8-hydroxyquinaldine ester]
IC50 [4]: 24 µM | IC50 [5]: > 100 µM | % reaction Brucella abortus CcrM Activity (Brucella abortus CcrM): 56%

Clc1ccc(B(Oc2ccc(Cl)c3cccnc23)c2ccc(Cl)cc2)cc1 [(13iii), Di-(p-chlorophenyl)borinic acid 5-chloro-8-hydroxyquinaline ester]
IC50 [4]: 6 µM | IC50 [5]: < 10 µM | % reaction Brucella abortus CcrM Activity (Brucella abortus CcrM): 81%

Fc1cc(Cl)ccc1B(Oc1cccc2cccnc12)c1ccc(Cl)cc1F [(11v), Di-(4-chloro-2-fluorophenyl)borinic acid 8-hydroxyquinoline ester]
IC50 [4]: 26 µM | IC50 [5]: < 10 µM

O=[N+]([O-])c1ccc(OB(c2ccc3c(c2)OCO3)c2ccc3c(c2)OCO3)c2ncccc12 [(14vi), Di-(3,4-methylenedioxyphenyl)borinic acid 8-hydroxy-5-nitroquinoline ester]
IC50 [4]: 7 µM | IC50 [5]: > 100 µM | % reaction Brucella abortus CcrM Activity (Brucella abortus CcrM): 21%

Clc1ccc([B-]2(c3ccc(Cl)cc3)[NH2+]CCO2)cc1 [Compound (5), di-(p-chlorophenyl)borinic acid ethanolamine ester]
IC50 (Caulobacter cresentus): 1.7 µM | IC50 (Bacillus subtilis): 3.2 µM

COc1ccc(B(Oc2cccc3cccnc23)c2ccc(OC)cc2)cc1 [(11vii), Di-(4-methoxyphenyl)borinic acid 8-hydroxyquinoline ester]
IC50 [4]: 24 µM | IC50 [5]: 20 µM

c1ccc(B(Oc2cccc3cccnc23)c2ccccc2)cc1 [(11i), diphenylborinic acid 8-hydroxyquiniline ester]
IC50 [4]: > 100 µM

Diphenylborinic acid 2-amino-1-phenylpropanol [(17i)]
IC50 [4]: > 100 µM | IC50 [5]: > 100 µM | % reaction Brucella abortus CcrM Activity (Brucella abortus CcrM): 114%

Clc1cccc(B(Oc2cccc3cccnc23)c2cccc(Cl)c2)c1 [(11iv), Di-(3-chlorophenyl)borinic acid 8-hydroxyguinoline ester]
IC50 [4]: 10 µM | IC50 [5]: < 10 µM

6-N-(diphenylborinic ester)-ethyl-9-(ethyl-2-acrylate)-methyl-adenine [Compound 3e]
inhibition of dcm Methyltransferase [1]: No inhibition at all | effect on cell growth (Brucella abortus): Cell growth inhibited from start | IC50 (Helicobacter pylori): 25 µM | inhibition of dam Methylase (dam Methylase (E. coli)): Complete inhibition

c1cnc2c(OB(c3ccc4c(c3)OCO4)c3ccc4c(c3)OCO4)cccc2c1 [(11vi), Di-(3,4-methylenedioxyphenyl)borinic acid 8-hydroxyquinoline ester]
IC50 [4]: 32 µM | IC50 [5]: 28 µM | % reaction Brucella abortus CcrM Activity (Brucella abortus CcrM): 42%

Fc1ccc([B-]2(c3ccc(F)cc3)[NH2+]CCO2)cc1 [Compound (4), di-(p-fluorophenyl)borinic acid ethanolamine ester]
IC50 (Caulobacter cresentus): 8.5 µM | IC50 (Bacillus subtilis): 3.4 µM

6-N-(diphenylborinic ester)-ethyl-adenine [Compound 3a]
inhibition of dcm Methyltransferase [1]: No inhibition at all | IC50 [2]: > 100 µM | effect on cell growth (Brucella abortus): Almost complete cell death after 12 hours | inhibition of dam Methylase (dam Methylase (E. coli)): Complete inhibition

NCCOB(c1ccc(Cl)cc1)c1ccc(Cl)cc1 [(19iii), Di-(4-chlorophenyl)borinic acid ethanolamine ester]
IC50 [4]: 17 µM

COc1ccc(B(Oc2ccc(Cl)c3cccnc23)c2ccc(OC)cc2)cc1 [(13vii), Di-(4-methoxyphenyl)borinic acid 5-chloro-8-hydroxyquinoline ester]
IC50 [4]: 7 µM | IC50 [5]: 36 µM

Cc1ccc2cccc(OB(c3ccc(F)cc3)c3ccc(F)cc3)c2n1 [(12ii), Di-(p-fluorophenyl)borinic acid 8-hydroxyquinaldine ester]
IC50 [4]: 56 µM | IC50 [5]: > 100 µM | % reaction Brucella abortus CcrM Activity (Brucella abortus CcrM): 17%

6-N-(diphenylborinic ester)-ethyl-9-(2-(2-(2-hydroxyethoxy)ethoxy)ethyl)-adenine [Compound 3d]
inhibition of dcm Methyltransferase [1]: No inhibition at all | effect on cell growth (Brucella abortus): Cell growth inhibited from start | inhibition of dam Methylase (dam Methylase (E. coli)): Complete inhibition

c1csc(B(Oc2cccc3cccnc23)c2cccs2)c1 [(11viii), Di-(2-thienyl)borinic acid 8-hydroxyguinoline ester]
IC50 [4]: > 100 µM | IC50 [5]: 28 µM | % reaction Brucella abortus CcrM Activity (Brucella abortus CcrM): 74%

Fc1ccc([B-]2(c3ccc(F)cc3)Oc3cccc4ccc[n+]2c34)cc1 [Compound (1), di-(p-fluorophenyl)borinic acid 8-hydroxyquiniline ester]
IC50 (Caulobacter cresentus): 23 µM | IC50 (Bacillus subtilis): 1.4 µM

NCCNc1ncnc2[nH]cnc12 [compound (8)]
inhibitory activity [6]: relatively low (mM range)

Fc1ccc(B(Oc2cccc3cccnc23)c2ccc(F)cc2)cc1 [(11ii), Di-(4-fluorophenyl)borinic acid 8-hydroxyguinoline ester]
IC50 [4]: 23 µM | % reaction Brucella abortus CcrM Activity (Brucella abortus CcrM): 61%

Diphenylborinic acid (S)-(+)-pyrrolidine-2-methanol [(18i)]
IC50 [4]: > 100 µM | IC50 [5]: > 100 µM | % reaction Brucella abortus CcrM Activity (Brucella abortus CcrM): 81%

NCCOB(c1ccc(F)cc1)c1ccc(F)cc1 [(19ii), Di-(4-fluorophenyl)borinic acid ethanolamine ester]
IC50 [4]: 85 µM | % reaction Brucella abortus CcrM Activity (Brucella abortus CcrM): 8%

Clc1ccc(B(Oc2cccc3cccnc23)c2ccc(Cl)cc2)cc1 [(11iii), Di-(4-chlorophenyl)borinic acid 8-hydroxyquinoline ester]
IC50 [4]: 16 µM | % reaction Brucella abortus CcrM Activity (Brucella abortus CcrM): 61%

c1ccc([B-]2(c3ccccc3)Oc3cccc4ccc[n+]2c34)cc1 [Compound (3), diphenylborinic acid 8-hydroxyquiniline ester]
IC50 (Caulobacter cresentus): > 100 µM

Fc1ccc(B(Oc2ccc(Cl)c3cccnc23)c2ccc(F)cc2)cc1 [(13ii), Di-(p-fluorophenyl)borinic acid 5-chloro-8-hydroxyquinaline ester]
IC50 [4]: 7 µM | IC50 [5]: 27 µM | % reaction Brucella abortus CcrM Activity (Brucella abortus CcrM): 55%

6-N-(diphenylborinic ester)-ethyl-9-(3-(N-phthaloyl)-aminopropyl)-adenine [Compound 3c]
inhibition of dcm Methyltransferase [1]: No inhibition at all | IC50 [2]: 25 µM | effect on cell growth (Brucella abortus): Cell growth inhibited from start | inhibition of dam Methylase (dam Methylase (E. coli)): Complete inhibition
